One assay deals with T1, VEGFR-2 (Homo sapiens, UniProt P35968).
T1 construct: made in house; host or cells: E. coli
In words: VEGFR-2 kinase assay (Biological Experiment 5, HTRF). It counts as biochemical. As to conditions: mean IC50; recombinant VEGFR-2, 10 μM ATP; read-out: Inhibition of VEGFR-2 kinase. As for the experimental part:
Biological Experiment 5: VEGFR-2 Kinase Assay
Recombinant VEGFR-2 protein was expressed in E. coli and purified. As kinase substrate, a biotinylated peptide with the amino acid sequence biotin-DFGLARDMYDKEYYSVG was used, which was obtained from Biosynthan.
VEGFR-2 [Test volume 5 μL] was incubated for 45 min at 22° C. in the presence of different concentrations of test substances (0 μM, including 10 datapoints within the range 0.001-20 μM in duplicate) in assay buffer [50 mM HEPES pH7.0, 25.0 mM MgCl2, 5.0 mM MnCl2, 0.1 mM Na ortho-Vanadate, 1.0 mM Dithiothreitol, 0.001% NP40, 10 μM ATP, 1.2 μM peptide substrate, 1.0% DMSO]. The reaction was stopped by addition of 5 μL of an EDTA/detection-solution [50 mM HEPES pH7.5, 125 mM EDTA, 0.2% BSA, 0.1 μM Streptavidin-XLent (obtained from CisBio), 1 nM PT66-Eu (obtained from PerkinElmer)]. The measurement of the fluorescence emission at 620 nm and 665 nm through excitation with light of wavelength 350 nm was accomplished in a Rubystar HTRF-measurement instrument obtained from BMG Labsystems.
The data (ratio of emission at 665 nm to emission at 620 nm multiplied by 10000) was normalised to 0% inhibition (enzyme reaction without inhibitor) and 100% inhibition (all assay components without enzyme). The determination of the IC50 values was accomplished with a 4-parameter fit using in-house software.

In assay [1] the target is T2, Tie2 (Homo sapiens, UniProt Q02763). Kind of assay: Tie-2 ELISA: angiopoietin-2 stimulated Tie2 autophosphorylation in Tie2-transfected CHO cells (Biological Experiment 1). The format is cell-based. More on the design: expressed in transfected cells; host or cells: CHO (DHFR-deficient), stably transfected. The conditions noted are these: mean IC50; CHO Tie2/DHFR cells stimulated with Ang2-Fc. The procedure:
Biological Experiment 1: ELISA-Assay
Herein CHO cell-cultures, which are stably transfected by known techniques with Tie2 using DHFR deficiency as selection marker, are stimulated by angiopoietin-2. The specific autophosphorylation of Tie2 receptors is quantified with a sandwich-ELISA using anti-Tie2 antibodies for catch and anti-phosphotyrosine antibodies coupled to HRP as detection.
• 1 cap Vanadate (1 mL>40 mg/mL; working solution 2 mM) • ad 50 mL with Duschl buffer • pH 7.6 Anti-TIE-II antibody 1:425 in Coating Buffer pH 9.6 Stock solution: 1.275 mg/ml>working.: 3 μg/mL PBST: 2 bottles PBS(10×)+10 ml Tween, fill up with deionised water RotiBlock 1:10 in deionised water Anti-Phosphotyrosine HRP-Conjugated 1:10000 in 3% TopBlock • 3% TopBlock in PBST BM Chemiluminescence ELISA Substrate (POD) • solution B 1:100 solution A SF9 cell culture medium Ang2-Fc in SF9 cell culture medium Cell Experiment: Dispense 5×10^4 cells/well/98 μl in 96 well tissue culture plate Incubate at 37° C./5% CO2 After 24 h add compounds according to desired concentrations Add also to control and stimulated values without compounds 2 μl DMSO And mix for a few min at room temperature Add 100 μAng2-Fc to all wells except control, which receives insect medium Incubate 20 min at 37° C. Wash 3× with PBS++ Add 100 μl Lysis buffer/well and shake a couple of min at room temperature Store lysates at […] before utilizing for the ELISA Performance of Sandwich-ELISA Coat 96 well FluoroNunc Plate MaxiSorp Surface C with anti-Tie2 Mab 1:425 in Coating buffer pH 9.6; 100 μL/well overnight at 4° C. Wash 2× with PBST Block plates with 250 μL/well RotiBlock 1:10 in deionised water Incubate for 2 h at room temperature or overnight at 4° C. shaking Wash 2× in PBST Add thawed lysates to wells and incubate overnight shaking at 4° C. Wash 2× with PBST Add 100 μL/well anti-Phosphotyrosine HRP-Conjugated 1:10000 in 3% TopBlock (3% TopBlock in PBST) and incubate overnight under shaking Wash 6× with PBST Add 100 μL/well BM Chemiluminescence ELISA Substrate (POD solutions 1 and 2 (1:100) Determine luminescence with the LumiCount. Biological Experiment 2: Tie-2-Kinase HTRF-Assay
Target sequence in this assay (Q02763 23-1124): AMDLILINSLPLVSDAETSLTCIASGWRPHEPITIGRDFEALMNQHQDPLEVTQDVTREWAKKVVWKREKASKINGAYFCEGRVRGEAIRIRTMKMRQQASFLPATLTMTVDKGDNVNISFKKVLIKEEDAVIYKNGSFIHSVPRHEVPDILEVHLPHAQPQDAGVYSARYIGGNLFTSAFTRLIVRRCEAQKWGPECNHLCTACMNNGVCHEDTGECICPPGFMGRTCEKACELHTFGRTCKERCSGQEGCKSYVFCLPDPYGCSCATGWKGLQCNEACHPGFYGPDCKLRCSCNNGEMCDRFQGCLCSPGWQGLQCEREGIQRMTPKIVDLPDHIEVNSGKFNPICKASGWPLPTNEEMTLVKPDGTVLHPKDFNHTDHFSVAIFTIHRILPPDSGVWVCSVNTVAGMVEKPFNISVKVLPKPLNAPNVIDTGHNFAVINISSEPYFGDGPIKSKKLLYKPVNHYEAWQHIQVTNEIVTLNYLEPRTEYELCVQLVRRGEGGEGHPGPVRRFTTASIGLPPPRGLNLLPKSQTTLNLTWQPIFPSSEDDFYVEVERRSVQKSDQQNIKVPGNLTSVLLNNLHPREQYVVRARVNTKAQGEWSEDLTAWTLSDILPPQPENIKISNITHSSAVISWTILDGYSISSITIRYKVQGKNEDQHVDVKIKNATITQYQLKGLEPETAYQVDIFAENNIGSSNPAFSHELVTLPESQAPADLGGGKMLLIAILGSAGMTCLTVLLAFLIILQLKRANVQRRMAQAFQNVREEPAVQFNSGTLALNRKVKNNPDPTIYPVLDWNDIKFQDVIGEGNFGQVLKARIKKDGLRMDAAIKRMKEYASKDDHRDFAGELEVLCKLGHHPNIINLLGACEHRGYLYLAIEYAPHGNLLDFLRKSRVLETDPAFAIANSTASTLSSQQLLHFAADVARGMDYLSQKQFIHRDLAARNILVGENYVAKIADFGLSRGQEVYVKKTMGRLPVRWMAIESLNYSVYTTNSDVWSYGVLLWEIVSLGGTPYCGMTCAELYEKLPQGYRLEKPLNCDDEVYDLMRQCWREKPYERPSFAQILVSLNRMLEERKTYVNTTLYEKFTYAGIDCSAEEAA
In general terms: An ELISA detects its analyte on a solid surface through an enzyme-linked reagent.

The target in assay [2] is T2, Tie2. In words: Tie-2 kinase assay without preactivation of kinase (Biological Experiment 3, HTRF). The format is biochemical. The conditions noted are these: mean IC50; GST-Tie-2 without preactivation, 10 μM ATP; read-out: Inhibition of Tie-2 kinase (Biological Experiment 3). Further details: fusion protein of GST and the intracellular domains of Tie-2; GST; made in house; host or cells: insect cells (Hi-5). From the text: Biological Experiment 3: Tie-2 Kinase Assay without Preactivation of Kinase
A recombinant fusion protein of GST and the intracellular domains of Tie-2, expressed in insect cells (Hi-5) and purified by Glutathion-Sepharose affinity chromatography was used as kinase. Alternatively, commercially available GST-Tie2-fusion protein (Upstate Biotechnology, Dundee, Scotland) can be used. As substrate for the kinase reaction the biotinylated peptide biotin-Ahx-EPKDDAYPLYSDFG (C-terminus in amide form) was used which can be purchased e.g. from the company Biosynthan GmbH (Berlin-Buch, Germany). Tie-2 (3.5 ng/measurement point) was incubated for 60 min at 22° C. in the presence of 10 μM adenosine-tri-phosphate (ATP) and 1 μM substrate peptide (biotin-Ahx-EPKDDAYPLYSDFG-NH2) with different concentrations of test compounds (0 μM and concentrations in the range 0.001-20 μM) in 5 μl assay buffer [50 mM Hepes/NaOH pH 7, 10 mM MgCl2, 0.5 mM MnCl2, 1.0 mM dithiothreitol, 0.01% NP40, protease inhibitor mixture (“Complete w/o EDTA” from Roche, 1 tablet per 2.5 ml), 1% (v/v) dimethylsulfoxide]. To stabilize the enzyme, bovine serum albumin (0.1%, w/v) can be added. The reaction was stopped by the addition of 5 μl of an aqueous buffer (25 mM Hepes/NaOH pH 7.5, 0.28% (w/v) bovine serum albumin) containing EDTA (90 mM) and the HTRF (Homogeneous Time Resolved Fluorescence) detection reagents streptavidine-XLent (0.2 μM, from C is Biointernational, Marcoule, France) and PT66-Eu-Chelate (0.3 ng/μl; a europium-chelate labelled anti-phospho-tyrosine antibody from Perkin Elmer).
The resulting mixture was incubated 1 h at 22° C. to allow the binding of the biotinylated phosphorylated peptide to the streptavidine-XLent and the PT66-Eu-Chelate. Subsequently the amount of phosphorylated substrate peptide was evaluated by measurement of the resonance energy transfer from the PT66-Eu-Chelate to the streptavidine-XLent. Therefore, the fluorescence emissions at 620 nm and 665 nm after excitation at 350 nm was measured in a HTRF reader, e.g. a Rubystar (BMG Labtechnologies, Offenburg, Germany) or a Viewlux (Perkin-Elmer). The ratio of the emissions at 665 nm and at […] was taken as the measure for the amount of phosphorylated substrate peptide. The data were normalised (enzyme reaction without inhibitor=0% inhibition, all other assay components but no enzyme=100% inhibition) and IC50 values were calculated by a 4 parameter fit using an inhouse software.
Target sequence in this assay (Q02763 770-1124 limits assumed): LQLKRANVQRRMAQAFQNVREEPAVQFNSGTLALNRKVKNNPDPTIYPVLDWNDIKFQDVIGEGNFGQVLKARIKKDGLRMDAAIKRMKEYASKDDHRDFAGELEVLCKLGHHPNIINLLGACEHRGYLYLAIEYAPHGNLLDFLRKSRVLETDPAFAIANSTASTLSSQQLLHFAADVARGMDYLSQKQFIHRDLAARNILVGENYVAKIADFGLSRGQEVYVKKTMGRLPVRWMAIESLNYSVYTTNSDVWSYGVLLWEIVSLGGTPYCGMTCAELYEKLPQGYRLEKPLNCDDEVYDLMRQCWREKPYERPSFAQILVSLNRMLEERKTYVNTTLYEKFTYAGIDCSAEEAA

T1 sequence (P35968 20-1356): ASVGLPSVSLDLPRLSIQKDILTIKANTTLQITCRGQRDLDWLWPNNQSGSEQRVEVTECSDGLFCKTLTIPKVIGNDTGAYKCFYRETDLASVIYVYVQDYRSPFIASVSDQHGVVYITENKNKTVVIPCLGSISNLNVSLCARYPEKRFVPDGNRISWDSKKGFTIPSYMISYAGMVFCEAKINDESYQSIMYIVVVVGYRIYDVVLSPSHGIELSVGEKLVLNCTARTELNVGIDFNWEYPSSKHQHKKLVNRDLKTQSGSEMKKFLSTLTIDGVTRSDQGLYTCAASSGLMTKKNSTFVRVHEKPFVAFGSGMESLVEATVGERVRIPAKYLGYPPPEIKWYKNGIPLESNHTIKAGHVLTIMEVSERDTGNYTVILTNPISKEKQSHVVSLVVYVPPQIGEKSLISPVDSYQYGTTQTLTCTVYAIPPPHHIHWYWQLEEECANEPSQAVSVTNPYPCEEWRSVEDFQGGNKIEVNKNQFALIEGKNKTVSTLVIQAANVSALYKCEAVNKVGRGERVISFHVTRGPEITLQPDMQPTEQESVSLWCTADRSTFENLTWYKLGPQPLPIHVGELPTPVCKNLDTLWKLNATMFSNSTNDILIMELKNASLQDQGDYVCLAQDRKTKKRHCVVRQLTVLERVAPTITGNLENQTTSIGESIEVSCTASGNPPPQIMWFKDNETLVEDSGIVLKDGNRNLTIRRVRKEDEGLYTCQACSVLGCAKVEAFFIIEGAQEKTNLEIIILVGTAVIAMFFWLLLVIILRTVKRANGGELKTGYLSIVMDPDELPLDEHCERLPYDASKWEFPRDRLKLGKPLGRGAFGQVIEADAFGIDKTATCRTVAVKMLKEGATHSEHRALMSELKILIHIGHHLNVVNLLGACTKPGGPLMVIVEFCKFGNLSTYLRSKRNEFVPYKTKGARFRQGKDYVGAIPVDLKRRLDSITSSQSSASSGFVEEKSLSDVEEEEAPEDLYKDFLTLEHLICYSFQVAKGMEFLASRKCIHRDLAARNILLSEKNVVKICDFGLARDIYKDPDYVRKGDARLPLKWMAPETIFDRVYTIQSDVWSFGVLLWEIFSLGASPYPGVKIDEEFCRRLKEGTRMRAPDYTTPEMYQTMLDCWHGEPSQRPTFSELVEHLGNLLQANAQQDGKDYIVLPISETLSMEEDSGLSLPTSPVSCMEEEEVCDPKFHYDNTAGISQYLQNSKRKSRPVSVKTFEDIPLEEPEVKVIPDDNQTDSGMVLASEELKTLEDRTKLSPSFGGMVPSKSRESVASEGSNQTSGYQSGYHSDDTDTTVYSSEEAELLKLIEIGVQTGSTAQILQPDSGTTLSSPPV

Take `CC(C)(C)c1cc(-c2ccc(NC(=O)Nc3ccccc3)cc2)c2c(N)n[nH]c2n1` [Example 1, 1-[4-(3-amino-6-tert-butyl-1H-pyrazolo[3,4-b]pyridin-4-yl)-phenyl]-3-phenyl-urea]: the IC50 at VEGFR-2 is 500 to 2000 nM; against Tie2 [1], 500 to 2000 nM; at Tie2 [2], ≤ 500 nM.
In the case of `CC(C)(C)c1cc(-c2ccc(NS(=O)(=O)c3ccccc3)cc2)c2c(N)n[nH]c2n1` [Example 2, N-[4-(3-amino-6-tert-butyl-1H-pyrazolo[3,4-b]pyridin-4-yl)-phenyl]-benzenesulfonamide], the IC50 against Tie2 [1] and on Tie2 [2] was 500 to 2000 nM each time.
Consider `CC(C)(C)c1cc(-c2ccc(NC(=O)Nc3cccc(F)c3)cc2)c2c(N)n[nH]c2n1` [Example 3, 1-[4-(3-amino-6-tert-butyl-1H-pyrazolo[3,4-b]pyridin-4-yl)-phenyl]-3-(3-fluoro-phenyl)-urea], for which the values for the IC50 on Tie2 [1] and at Tie2 [2] were ≤ 500 nM and 500 to 2000 nM, respectively.
In the case of `Cc1cccc(NC(=O)Nc2ccc(-c3cc(C(C)(C)C)nc4[nH]nc(N)c34)cc2)c1` [Example 9, 1-[4-(3-amino-6-tert-butyl-1H-pyrazolo[3,4-b]pyridin-4-yl)-phenyl]-3-m-tolyl-urea], the IC50 on VEGFR-2 is 500 to 2000 nM; at Tie2 [1] it was ≤ 500 nM; at Tie2 [2] it was ≤ 500 nM.
As to `CC(C)(C)c1cc(-c2ccc(NC(=O)Nc3ccc(F)cc3)cc2)c2c(N)n[nH]c2n1` [Example 12, 1-[4-(3-amino-6-tert-butyl-1H-pyrazolo[3,4-b]pyridin-4-yl)-phenyl]-3-(4-fluoro-phenyl)-urea], the IC50 at Tie2 [1] was ≤ 500 nM; on Tie2 [2], 500 to 2000 nM.
`Nc1n[nH]c2nc(C3CC3)cc(-c3ccc(NC(=O)Nc4ccccc4)cc3)c12` [Example 14, 1-[4-(3-amino-6-cyclopropyl-1H-pyrazolo[3,4-b]pyridin-4-yl)-phenyl]-3-phenyl-urea]: the IC50 was ≤ 500 nM at VEGFR-2, ≤ 500 nM against Tie2 [1] and 500 to 2000 nM on Tie2 [2].
Consider `Nc1n[nH]c2nc(C3CC3)cc(-c3ccc(NC(=O)Nc4ccccc4F)cc3)c12` [Example 15, 1-[4-(3-amino-6-cyclopropyl-1H-pyrazolo[3,4-b]pyridin-4-yl)-phenyl]-3-(2-fluoro-phenyl)-urea], for which the IC50 on VEGFR-2 was 500 to 2000 nM; against Tie2 [1], ≤ 500 nM; at Tie2 [2] it was ≤ 500 nM.
As for `CC(C)c1cc(-c2ccc(NC(=O)Nc3cccc(C(F)(F)F)c3)cc2)c2c(N)n[nH]c2n1` [Example 16, 1-[4-(3-amino-6-isopropyl-1H-pyrazolo[3,4-b]pyridin-4-yl)-phenyl]-3-(3-trifluoromethyl-phenyl)-urea], the IC50 at VEGFR-2, against Tie2 [1] and on Tie2 [2] was ≤ 500 nM in each case.
Consider `Cc1ccc(C(=O)Nc2ccc(-c3cc(C(C)(C)C)nc4[nH]nc(N)c34)cc2)cc1` [Example 17, N-[4-(3-amino-6-tert-butyl-1H-pyrazolo[3,4-b]pyridin-4-yl)-phenyl]-4-methyl-benzamide], for which the IC50 on VEGFR-2, against Tie2 [1] and at Tie2 [2] was 500 to 2000 nM each time.
Regarding `CC(C)(C)c1cc(-c2ccc(NC(=O)Nc3cccc(C(F)(F)F)c3)cc2)c2c(N)n[nH]c2n1` [Example 27, 1-[4-(3-amino-6-tert-butyl-1H-pyrazolo-[3,4-b]pyridin-4-yl)-phenyl]-3-(3-trifluoro-methyl-phenyl)-urea], the IC50 on VEGFR-2, against Tie2 [1] and on Tie2 [2] was ≤ 500 nM in each case.
Take `Cc1ccc(F)c(NC(=O)Nc2ccc(-c3cc(C(C)(C)C)nc4[nH]nc(N)c34)cc2)c1` [Example 31, 1-[4-(3-amino-6-tert-butyl-1 H-pyrazolo[3,4-b]pyridin-4-yl)-phenyl]-3-(2-fluoro-5-methyl-phenyl)-urea]: the IC50 at Tie2 [2] is ≤ 500 nM.
For `CC(C)(C)c1cc(-c2ccc(NC(=O)Nc3cc(C(F)(F)F)ccc3F)cc2)c2c(N)n[nH]c2n1` [Example 37, 1-[4-(3-amino-6-tert-butyl-1H-pyrazolo[3,4-b]pyridin-4-yl)-phenyl]-3-(2-fluoro-5-trifluoromethyl-phenyl)-urea], the IC50 on VEGFR-2, against Tie2 [1] and on Tie2 [2] was ≤ 500 nM throughout.
Consider `CC(C)(C)c1cc(-c2ccc(NC(=O)Cc3ccccc3)cc2)c2c(N)n[nH]c2n1` [Example 47, N-[4-(3-amino-6-tert-butyl-1H-pyrazolo[3,4-b]pyridin-4-yl)-phenyl]-2-phenyl-acetamide], for which the IC50 on Tie2 [1] and on Tie2 [2] was 500 to 2000 nM each time.
On to `CC(C)(C)c1cc(-c2ccc(NC(=O)C3(c4ccccc4)CC3)cc2)c2c(N)n[nH]c2n1` [Example 49, 1-phenyl-cyclopropanecarboxylic acid [4-(3-amino-6-tert-butyl-1H-pyrazolo[3,4-b]pyridin-4-yl)-phenyl]-amide], for which the IC50 against Tie2 [1] and on Tie2 [2] was ≤ 500 nM each time.
For `CC(C)(C)c1cc(-c2ccc(NC(=O)C(C)(C)c3ccccc3)cc2)c2c(N)n[nH]c2n1` [Example 51, N-[4-(3-amino-6-tert-butyl-1H-pyrazolo[3,4-b]pyridin-4-yl)-phenyl]-2-phenyl-isobutyramide], the values for the IC50 against Tie2 [1] and at Tie2 [2] were ≤ 500 nM and 500 to 2000 nM, respectively.

These data come from patent US7842809B2, “Pyrazolopyridines and salts thereof, a pharmaceutical composition comprising said compounds, a method of preparing same and use of same” (Bayer Schering Pharma AG, priority 2005, dated 2010).
